PMC7838034 (Acta Pharmaceutica Sinica. B, 2020)

Experiments:
[1] = molecular target: recombinant BRD4(BD1 + BD2) (Homo sapiens, UniProt O60885); experiment: BRD4 inhibition assay; format: binding; settings: tested in duplicate, average; for inhibition at 1 µM: read-out: Inhibition rate BRD4, 1 μmol/L; for inhibition at 10 µM: read-out: Inhibition rate BRD4, 10 μmol/L
[2] = molecular target: PARP1 (Homo sapiens, UniProt P09874); experiment: PARP1 inhibition assay; format: biochemical; settings: tested in duplicate, average; for inhibition at 1 µM: read-out: Inhibition rate PARP1, 1 μmol/L; for inhibition at 10 µM: read-out: Inhibition rate PARP1, 10 μmol/L
Chain of PARP1 (P09874 whole entry): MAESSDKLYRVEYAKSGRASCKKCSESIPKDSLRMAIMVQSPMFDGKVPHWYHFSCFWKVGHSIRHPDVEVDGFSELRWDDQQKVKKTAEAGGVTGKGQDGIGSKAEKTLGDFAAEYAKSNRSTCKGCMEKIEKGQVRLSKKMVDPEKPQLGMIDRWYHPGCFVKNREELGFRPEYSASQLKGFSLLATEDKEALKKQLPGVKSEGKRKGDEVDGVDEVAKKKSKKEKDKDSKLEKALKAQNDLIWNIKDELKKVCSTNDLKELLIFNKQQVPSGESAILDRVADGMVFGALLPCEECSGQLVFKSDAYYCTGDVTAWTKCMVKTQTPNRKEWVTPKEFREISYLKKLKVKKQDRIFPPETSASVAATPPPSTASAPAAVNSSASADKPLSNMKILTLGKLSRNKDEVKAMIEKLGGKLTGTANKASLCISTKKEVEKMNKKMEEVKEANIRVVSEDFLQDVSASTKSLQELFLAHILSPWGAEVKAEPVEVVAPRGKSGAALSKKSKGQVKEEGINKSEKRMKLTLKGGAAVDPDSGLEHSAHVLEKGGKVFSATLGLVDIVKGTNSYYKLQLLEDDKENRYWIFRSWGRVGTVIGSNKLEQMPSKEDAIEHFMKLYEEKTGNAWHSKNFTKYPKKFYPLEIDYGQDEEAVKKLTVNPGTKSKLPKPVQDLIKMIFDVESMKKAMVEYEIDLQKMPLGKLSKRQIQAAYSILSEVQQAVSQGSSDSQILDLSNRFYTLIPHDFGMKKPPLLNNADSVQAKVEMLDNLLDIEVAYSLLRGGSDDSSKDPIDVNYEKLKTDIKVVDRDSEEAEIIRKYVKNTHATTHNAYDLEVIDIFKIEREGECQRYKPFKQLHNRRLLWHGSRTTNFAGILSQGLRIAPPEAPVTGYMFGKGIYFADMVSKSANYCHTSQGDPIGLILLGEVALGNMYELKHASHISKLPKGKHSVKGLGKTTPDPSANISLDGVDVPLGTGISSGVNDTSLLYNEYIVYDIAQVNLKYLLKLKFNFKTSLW

| Inhibition rate BRD4 ([1]; 1 μmol/L) | Inhibition rate BRD4 ([1]; 10 μmol/L) | Inhibition rate PARP1 ([2]; 1 μmol/L) | Inhibition rate PARP1 ([2]; 10 μmol/L) | inhibition at 1 µM [1] | inhibition at 10 µM [1] | inhibition at 1 µM [2] | inhibition at 10 µM [2] | Molecule |
| --- | --- | --- | --- | --- | --- | --- | --- | --- |
| 9% | 47% | 8% | 60% | – | – | – | – | 2-(4-((4-(Cyclopropanecarbonyl)piperazin-1-yl)methyl)phenyl)-5,7-dimethoxyquinazolin-4(3H)-one [Compound 11c] |
| 4% | 41% | 18% | 71% | – | – | – | – | 2-(4-((4-(Cyclopropanecarbonyl)piperazin-1-yl)methyl)phenyl)quinazolin-4(3H)-one [Compound 11d] |
| – | – | – | – | 1% | 36% | 4% | 25% | CNC(=O)c1ccc(-c2nc3cc(OC)cc(OC)c3c(=O)[nH]2)cc1 [Compound 5a, 4-(5,7-Dimethoxy-4-oxo-3,4-dihydroquinazolin-2-yl)-N-methylbenzamide] |
| – | – | – | – | 0% | 22% | 0% | 15% | CNC(=O)c1ccc(-c2nc3ccccc3c(=O)[nH]2)cc1 [Compound 5b, N-Methyl-4-(4-oxo-3,4-dihydroquinazolin-2-yl)benzamide] |
| – | – | – | – | 1% | 18% | 0% | 2% | COc1cc(OC)c2c(=O)[nH]c(-c3ccc(C(N)=O)cc3)nc2c1 [Compound 5c, 4-(5,7-Dimethoxy-4-oxo-3,4-dihydroquinazolin-2-yl)benzamide] |
| – | – | – | – | 2% | 19% | 0% | 1% | NC(=O)c1ccc(-c2nc3ccccc3c(=O)[nH]2)cc1 [Compound 5d, 4-(4-Oxo-3,4-dihydroquinazolin-2-yl)benzamide] |
| – | – | – | – | 12% | 70% | 2% | 36% | COc1cc(OC)c2c(=O)[nH]c(-c3ccc(N4CCOCC4)cc3)nc2c1 [Compound 5e, 5,7-Dimethoxy-2-(4-morpholinophenyl)quinazolin-4(3H)-one] |
| – | – | – | – | 12% | 55% | 0% | 29% | O=c1[nH]c(-c2ccc(N3CCOCC3)cc2)nc2ccccc12 [Compound 5f, 2-(4-Morpholinophenyl)quinazolin-4(3H)-one] |
| – | – | – | – | 3% | 13% | 9% | 34% | COc1cc(OC)c2c(=O)[nH]c(-c3ccc4cc[nH]c4c3)nc2c1 [Compound 5g, 2-(1H-Indol-6-yl)-5,7-dimethoxyquinazolin-4(3H)-one] |
| – | – | – | – | 0% | 11% | 3% | 10% | O=c1[nH]c(-c2cccc3nc[nH]c23)nc2ccccc12 [Compound 5h, 2-(1H-Benzo[d]imidazole-7-yl)quinazolin-4(3H)-one] |
| – | – | – | – | – | – | 8% | – | COc1cc(OC)c2c(=O)[nH]c(-c3c[nH]c4ncccc34)nc2c1 [Compound 5i, 5,7-Dimethoxy-2-(1H-pyrrolo[2,3-b]pyridin-3-yl)quinazolin-4(3H)-one] |
| – | – | – | – | 6% | – | – | – | O=c1[nH]c(-c2c[nH]c3ncccc23)nc2ccccc12 [Compound 5j, 2-(1H-Pyrrolo[2,3-b]pyridin-3-yl)quinazolin-4(3H)-one] |
| – | – | – | – | 8% | 42% | 6% | 39% | COc1cc(OC)c2c(=O)[nH]c(-c3cccc4nc[nH]c34)nc2c1 [Compound 5k, 2-(1H-Benzo[d]imidazole-7-yl)-5,7-dimethoxyquinazolin-4(3H)-one] |
| – | – | – | – | 4% | 50% | 6% | 57% | COc1cc(OC)c2c(=O)[nH]c(-c3cccc(C(=O)N4CCN(C(=O)C5CC5)CC4)c3)nc2c1 [Compound 11a, 2-(3-(4-(Cyclopropanecarbonyl)piperazine-1-carbonyl)phenyl)-5,7-dimethoxyquinazolin-4(3H)-one] |
